Experimental data as given in ChEMBL document CHEMBL1138074, “SAR studies of 2-methoxyestradiol and development of its analogs as probes of anti-tumor mechanisms” (Bioorg Med Chem Lett, 2006).

System: LNCaP
Assay: Antiproliferative activity against human LNCaP cell line
Assay type: functional, cell-based
Settings: Homo sapiens, LNCaP; read-out: IC50; call rule not given here

Row | IC50 | Compound
1 | 900 nM | COc1cc2c(cc1O)CC[C@@H]1[C@@H]2CC[C@]2(C)[C@@H](OC(=O)CN)CC[C@@H]12
2 | 600 nM | COc1cc2c(cc1O)CC[C@@H]1[C@@H]2CC[C@]2(C)[C@@H](OC(=O)CNC(=O)CCCCCNC(=O)OC(C)(C)C)CC[C@@H]12
3 | 600 nM | COc1cc2c(cc1O)CC[C@@H]1[C@@H]2CC[C@]2(C)[C@@H](OC(=O)CNC(=O)CCCCCN)CC[C@@H]12

The next lines start with the compound.

Row | Compound | IC50
4 | COc1cc2c(cc1O)CC[C@@H]1[C@@H]2CC[C@]2(C)[C@@H](OC(=O)CNC(=O)CCCCCNC(=O)CCCC[C@@H]3SC[C@@H]4NC(=O)N[C@@H]43)CC[C@@H]12 | 600 nM
5 | COc1cc2c(cc1O)CC[C@@H]1[C@@H]2CC[C@]2(C)[C@@H](O)CC[C@@H]12 [2-METHOXYESTRADIOL] | 500 nM

Same assay, conditions: lncap

Row | Compound | IC50
6 | COc1cc2c(cc1O)CC[C@@H]1[C@@H]2CC[C@]2(C)[C@@H](OC(=O)CNC(=O)OCC3c4ccccc4-c4ccccc43)CC[C@@H]12 | Not Active
